One series has as its target Chk2 kinase (Homo sapiens (Human), UniProt O96017). As to the kind of experiment: Chk2 kinase inhibitory activity (LanthaScreen TR-FRET). Format: biochemical. To be noted: graded. In a few lines:
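Recombinant Chk1 or Chk2 was mixed with substrate and compound, and the reaction was started with ATP and run 1 h at room temperature. Phosphorylation was detected with a Tb-labelled anti-CREB pSer133 antibody for 30 min, read as the TR-FRET Em520/Em490 ratio. IC50 was fitted from duplicate-well means.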
(In general: Time-resolved FRET reads energy transfer from a long-lived donor to a nearby acceptor.)

Series [1] can be described thus: Pharmacokinetics test using mice. To be noted: male, Balb/C, mouse, plasma; for Cmax: read-out: C0/Cmax; for Vd: iv, 1 mg/kg. In kind it is in vivo. As to the method:
6 to 8 week-old male Balb/C mice weighing 22-29 g were acclimatized for about 1 week, and then 12 mice for each group were divided into an intravenous administration group and an oral administration group and used in the experiment. The mice were fasted before administration of the compound and were allowed to drink water ad libitum. Feed was provided 2 hours after administration of the compound.
A preparation for intravenous injection (0.2 mg/mL) was prepared by dissolving 1.264 mg of the compound of Example 9 in 6.257 mL of DMSO: a mixed solution of solutol and ethanol (1:1): physiological saline (5:5:90% v/v). A preparation for oral administration (1 mg/mL) was prepared by suspending 5.916 mg of the compound of Example 9 in 5.857 mL of 0.5% methyl cellulose (0.5:99.5% v/v) containing 0.1 Tween 80.
The compound of Example 9 was administered at a dose of 1 mg/kg for intravenous administration and at a dose of 10 mg/kg for oral administration using an oral zonde.
In the case of intravenous administration, blood was collected at 5 minutes, 15 minutes, 30 minutes, 1 hour, 2 hours, 4 hours, 8 hours and 24 hours after administration of the compound. In the case of oral administration, blood was collected at 15 minutes, 30 minutes, 1 hour, 2 hours, 4 hours, 8 hours, 10 hours and 24 hours after administration of the compound. Plasma was separated from the collected blood, and the content of compounds in blood was measured by LC-MS/MS method, and PK parameters were calculated using Phoenix software ver.8.1.

The subject of series [2] is human breast cancer cell line MCF-7. As to the kind of experiment: Cancer cell growth inhibition test (CellTiter-Glo). In kind it is cell-based. To be noted: Homo sapiens, MCF7, 72 h, MCF-7, 72 hours, graded; read-out: Celltiter glo analysis (IC50). In a few lines: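 MCF-7 cells (about 3000/well) pre-incubated 24 hours at 37° C, then exposed 72 hours to serially diluted compound, alone or combined with cisplatin or doxorubicin. Viability read by CellTiter-Glo luminescence as % of DMSO-only wells; values are means of three wells.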

A further series concerns the target Chk1 kinase (Homo sapiens (Human), UniProt O14757). Description: Chk1 kinase inhibitory activity (LanthaScreen TR-FRET). Format: biochemical. To be noted: graded. As to the method:
The compounds of Examples 1 to 66 were diluted at various concentrations and transferred to a 384-well plate by 5 μl, and 10 μl of a mixed solution (2×) of Chk1 kinase (Thermo, P3040) or Chk2 kinase (Thermo, PV3367) and a substrate (Thermo, PV3508) was added to wells treated with the compounds. 5 μl of an ATP solution at a 4× concentration was added to the test well and reacted at room temperature for 1 hour. 20 μl of LanthaScreen Terbium-CREB p-Ser 133 antibody (Thermo, PV3542) was added to the reaction well and incubated at room temperature for 30 minutes. Conversion data was measured by an EnVision 2014 multi label reader (PerkinElmer). The activity for each concentration was determined by the ratio (FRET ratio=FR) of the value obtained by dividing the value at 520 nm by the value at 490 nm among the emission wavelength values for each wavelength (Em520/Em490). The results obtained for each concentration of the compounds were the average values obtained in two wells, and the IC50 values of the compounds were calculated using PRIZM software for analysis of the results. IC50 in Table 7 was graded as follows.

Like-named read-outs stand apart in the source and are kept apart here.

Chk1 kinase, sequence (O14757 whole entry): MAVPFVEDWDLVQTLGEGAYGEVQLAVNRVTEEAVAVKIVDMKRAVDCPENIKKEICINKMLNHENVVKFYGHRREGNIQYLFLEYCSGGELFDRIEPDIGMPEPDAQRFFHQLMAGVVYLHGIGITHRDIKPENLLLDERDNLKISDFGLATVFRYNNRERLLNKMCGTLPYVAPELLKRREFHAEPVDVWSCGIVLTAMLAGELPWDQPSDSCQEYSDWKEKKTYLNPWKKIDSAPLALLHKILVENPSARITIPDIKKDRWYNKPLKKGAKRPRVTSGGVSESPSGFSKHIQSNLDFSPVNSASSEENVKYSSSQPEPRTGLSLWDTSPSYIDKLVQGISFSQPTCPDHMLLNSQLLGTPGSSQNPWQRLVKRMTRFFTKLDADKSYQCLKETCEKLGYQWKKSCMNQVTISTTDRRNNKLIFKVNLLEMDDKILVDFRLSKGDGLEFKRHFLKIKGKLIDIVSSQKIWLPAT
Chk2 kinase, sequence (O96017 whole entry): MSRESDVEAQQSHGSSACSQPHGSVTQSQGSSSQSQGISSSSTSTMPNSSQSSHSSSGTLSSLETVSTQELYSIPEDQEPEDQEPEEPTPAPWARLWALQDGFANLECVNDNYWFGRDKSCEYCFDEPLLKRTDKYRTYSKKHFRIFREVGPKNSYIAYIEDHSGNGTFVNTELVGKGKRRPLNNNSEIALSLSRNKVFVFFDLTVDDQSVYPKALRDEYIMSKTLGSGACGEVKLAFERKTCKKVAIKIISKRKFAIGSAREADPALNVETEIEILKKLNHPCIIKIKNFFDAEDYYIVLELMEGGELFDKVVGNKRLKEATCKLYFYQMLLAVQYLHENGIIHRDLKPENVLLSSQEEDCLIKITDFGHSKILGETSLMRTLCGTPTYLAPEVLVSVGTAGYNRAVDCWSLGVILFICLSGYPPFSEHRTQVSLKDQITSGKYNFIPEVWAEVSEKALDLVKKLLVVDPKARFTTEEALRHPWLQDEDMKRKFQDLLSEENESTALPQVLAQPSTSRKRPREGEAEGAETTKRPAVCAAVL

On to `Nc1ncc(-c2cc(-c3cnn(CC(F)(F)F)c3)ccc2F)nc1C(=O)N[C@@H]1CNC[C@@H](F)C1` [Example 9, 3-amino-6-(2-fluoro-5-(1-(2,2,2-trifluoroethyl)-1H-pyrazol-4-yl)phenyl)-N-((3S,5S)-5-fluoropiperidin-3-yl) pyrazine-2-carboxamide], for which the IC50 (usually the concentration that inhibits the measured activity by half) at Chk2 kinase was in the range of 0.01 to 0.1 µM. Also, in series [1] (IV (1 mg/kg)), the AUC(0-inf) (commonly the area under the concentration-time curve extrapolated to infinity) amounted to 298 ng·h/mL; the AUC(0-t) (usually exposure summed from dosing to a finite time, without extrapolation to infinity) amounted to 267 ng·h/mL; the clearance (usually the volume of plasma or blood freed of the substance per unit of time) was 56.2 mL/min/kg; the half-life (in general, the time in which the quantity being followed falls by half) is 1.36 h. Also, the Cmax in series [1] (IV (1 mg/kg)) was 231 ng/mL. For the same compound, the bioavailability (usually the share of a dose that reaches the circulation, judged against a reference dose that is usually intravenous) in series [1] (PO 10 mg/kg vs IV 1 mg/kg, read-out: Oral bioavailability (% F)) is 59%. Also, in series [1] (PO (10 mg/kg)), the AUC(0-inf) stood at 1770 ng·h/mL, the AUC(0-t) worked out at 1730 ng·h/mL, the Tmax (usually the time from dosing to the highest level) came to 0.5 h and the half-life is 1.92 h. Also, the Cmax in series [1] (PO (10 mg/kg)) stood at 749 ng/mL. Moreover, the Vd in series [1] (IV (1 mg/kg), read-out: Vd) came to 6.59 L/kg. Besides, in series [1] (IV (1 mg/kg), read-out: Vss), the Vd stood at 5.22 L/kg. Further, the IC50 in series [2] lay within 10 to 100 µM.

On to `CC1(C)Cc2c(-c3cccc(-c4cnc(N)c(C(=O)N[C@H]5CCCNC5)n4)c3)cnn2C1` [Example 42, (S)-3-amino-6-(3-(5,5-dimethyl-5,6-dihydro-4H-pyrrolo[1,2-b]pyrazol-3-yl)phenyl)-N-(piperidin-3-yl) pyrazine-2-carboxamide], for which the IC50 against Chk2 kinase was not above 0.01 µM; in series [2], 10 to 100 µM; against Chk1 kinase it was 0.01 to 0.1 µM.

`CC1(C)Cc2c(-c3ccc(F)c(-c4cnc(N)c(C(=O)N[C@H]5CCCNC5)n4)c3)cnn2C1` [Example 43, (S)-3-amino-6-(5-(5,5-dimethyl-5,6-dihydro-4H-pyrrolo[1,2-b]pyrazol-3-yl)-2-fluorophenyl)-N-(piperidin-3-yl)pyrazine-2-carboxamide]: the IC50 against Chk2 kinase is not above 0.01 µM; in series [2], 10 to 100 µM; against Chk1 kinase, 0.1 to 1 µM.

As for `CC1(C)Cc2c(-c3ccc(F)c(-c4cnc(N)c(C(=O)N[C@@H]5CNC[C@@H](F)C5)n4)c3)cnn2C1` [Example 44, 3-amino-6-(5-(5,5-dimethyl-5,6-dihydro-4H-pyrrolo [1,2-b]pyrazol-3-yl)-2-fluorophenyl)-N-((3S,5S)-5-fluoropiperidin-3-yl)pyrazine-2-carboxamide], the results for the IC50 (on Chk2 kinase; in series [2]; at Chk1 kinase) were 0.01 to 0.1 µM, not above 10 µM and not above 0.01 µM, respectively.

Turning to `CC1(C)Cc2c(-c3cccc(-c4cnc(N)c(C(=O)N[C@@H]5CNC[C@@H](F)C5)n4)c3)cnn2C1` [Example 45, 3-amino-6-(3-(5,5-dimethyl-5,6-dihydro-4H-pyrrolo[1,2-b]pyrazol-3-yl)phenyl)-N-((3S,5S)-5-fluoropiperidin-3-yl)pyrazine-2-carboxamide], the values for the IC50 (on Chk2 kinase; in series [2]; at Chk1 kinase) were not above 0.01 µM, 10 to 100 µM and 0.1 to 1 µM, respectively.

On to `CC1(C)Cc2c(-c3ccc(F)c(-c4cnc(N)c(C(=O)N[C@H]5CCC6(CC6)NC5)n4)c3)cnn2C1` [Example 46, (S)-3-amino-6-(5-(5,5-dimethyl-5,6-dihydro-4H-pyrrolo[1,2-b]pyrazol-3-yl)-2-fluorophenyl)-N-(4-azaspiro[2.5]octan-6-yl)pyrazine-2-carboxamide], for which the IC50 on Chk2 kinase was 0.01 to 0.1 µM; in series [2], 10 to 100 µM; on Chk1 kinase it was more than 1 µM.

As to `CC1(C)Cc2c(-c3cccc(-c4cnc(N)c(C(=O)N[C@@H]5CNCC(F)(F)C5)n4)c3)cnn2C1` [Example 59], the IC50 on Chk2 kinase is 0.01 to 0.1 µM; in series [2], not above 10 µM; at Chk1 kinase, more than 1 µM.

With `CC1(C)Cc2c(-c3nccc(-c4cnc(N)c(C(=O)NC5CNC[C@@H](F)C5)n4)n3)cnn2C1` (stereo partly drawn) [Example 64, 3-amino-6-(2-(5,5-dimethyl-5,6-dihydro-4H-pyrrolo[1,2-b]pyrazol-3-yl)pyrimidin-4-yl)-N-((3S,5S)-5-fluoropiperidin-3-y)pyrazine-2-carboxamide], the IC50 is not above 0.01 µM at Chk2 kinase, 10 to 100 µM in series [2] and more than 1 µM on Chk1 kinase.

(Values after patent publication US20250188059A1, “NOVEL COMPOUND AND USE THEREOF FOR INHIBITING CHECKPOINT KINASE 2” (ARUM THERAPEUTICS INC, priority 2022, published 2025).)
